Data set [1] addresses BACE1 (recombinant β-secretase enzyme) (Homo sapiens (Human), UniProt P56817). Briefly: AnaSpec BACE1 fluorescent assay (beta-secretase activity assay). The format is biochemical. The procedure:
A BACE1 activity assay kit from AnaSpec (Fremont, Calif.) was used to determine the potency of the selected BACE1 inhibitors by AnaSpec BACE1 fluorescent assay. The recombinant β-secretase enzyme was diluted 1:200 in 1× assay buffer (1 part of 1× assay buffer and 1 part of TBS containing 0.1% Tween 20). The enzyme was added in a volume of 40 μl to each well of a black 96-well micro plate.
The BACE1 inhibitors were serially diluted into DMSO from their 10 mM stock concentrations in DMSO. The serially diluted inhibitors were diluted 1:100 into 1× assay buffer in a 96-well polypropylene plate (assay dilution plate). The final concentration of the BACE1 inhibitor tested was 300 nM, 100 nM, 30 nM, 10 nM, 3 nM, 1 nM 0.3 nM, and 0.00 nM. Dose responses for inhibitors were run in duplicate.
A volume of 10 μl of the inhibitor from the assay dilution plate, a control inhibitor LY2886721 or inhibitor vehicle was then added to each well of the black 96-well micro plate containing BACE1.
To each well of the black 96-well micro plate, 50 μl of the β-secretase substrate (Hylite Fluor 488) diluted 1:100 using assay buffer was added. The reagents were mixed gently and the assay plate was placed into a POLARstar fluorescent plate reader with excitation wavelength set at 485 nm and the emission wavelength set at 520 nm. The plate reader was set to take readings every 5 minutes for up to 30 minutes or a 30 minute endpoint reading was used.
An appropriate integrated first-order rate equation was used to fit the data accumulated over a 30-40 minute collection period.

Data set [2] has as its target recombinant BACE2 (Homo sapiens (Human), UniProt Q9Y5Z0). Briefly: AnaSpec BACE2 fluorescent assay. The format is biochemical. The procedure: A BACE2 activity assay kit from AnaSpec (Fremont, Calif.) was used to determine the potency of the selected compounds by AnaSpec BACE2 fluorescent assay. To each well of a black 96-well micro plate, 50 μl of the β-secretase substrate (Hylite Fluor 488) diluted 1:100 using assay buffer was first added.
The compounds were serially diluted (1:2) into DMSO from their 10 mM stock concentrations in DMSO. The serially diluted inhibitors were diluted 1:100 into 1× assay buffer in a 96-well polypropylene plate (assay dilution plate). The final concentration of these compounds tested was 300 nM, 150 nM, 75 nM, 37.5 nM, 18.75 nM, 9.375 nM, 4.688 nM, 2.344 nM, 1.172 nM, 0.586 nM, and 0.293 nM.
A volume of 10 μl of the inhibitor from the assay dilution plate, a control inhibitor LY2886721 or inhibitor vehicle was then added to each well of the black 96-well micro plate.
The recombinant BACE2 was diluted in an assay buffer and the final BACE2 was 10.6 nM. The enzyme was added in a volume of 40 μl to each well of a black 96-well micro plate.
The reagents were mixed gently and the assay plate was placed into a POLARstar fluorescent plate reader with excitation wavelength set at 485 nm and the emission wavelength set at 520 nm. The plate reader was set to take readings every 5 minutes for up to 30 minutes or a 30 minute endpoint reading was used.
An appropriate integrated first-order rate equation was used to fit the data accumulated over a 30-40 minute collection period. Dose responses for inhibitors were run in duplicate.

For data set [3] the following is noted: in humans; cited from earlier work.
For data set [4] the following is noted: animal toxicology study; cited from earlier work.
Data set [5] concerns Aβ38, Aβ40 and Aβ42 in CSF. In words: Efficacy study in monkeys: Aβ biomarkers in CSF after single oral administration. It is filed as in vivo, cynomolgus monkeys. The following applies: Monkey CSF. The source says:
Certain isoforms of amyloid β peptide (AR), such as Aβ338, Aβ340 and Aβ342 have been established as relevant biomarkers that reflect BACE1 activity and have been exploited to establish translational relationships between different cellular assays and animal models. In this efficacy study, mammals were used to assess amyloid β reduction with BACE1 inhibitors. In a clinical setting, plasma and cerebrospinal fluid (CSF) are the accessible compartments to measure soluble amyloid β levels to determine target profile. It is important to analyze plasma and CSF levels which relate to changes in brain amyloid β levels. The concentration of BACE1 inhibitors and their time-dependent reduction of plasma, CSF and brain amyloid β levels were investigated following intravenous and oral administrations of BACE1 inhibitors.
a (ii). Formulation for PO administration: 5% (v/v) PEG400+95% (v/v) of 1% (w/v) methyl cellulose in water (the viscosity of methyl cellulose is 20 g/L, 20° C., cPa·s: 350.0-550.0). The test article solutions were prepared by dissolving the compound in PEG400 followed by the addition of the aqueous solution to the final volume.
For the oral formulation of a BACE1 inhibitor in the monkey efficacy study (at the dose of 20 mg/kg with the concentration of 2 mg/ml)
1) Weighed […] of the selected BACE1 inhibitors into a clean vial;
2) Added 2.826 mL of PEG400 into the tube containing the compound. Then vortexed for 5 min and sonicated for 45 min;
3) Added 53.688 mL of 1% MC in water into the tube containing the compound. Then vortexed for 4 min and sonicated for 4 min; and
4) Adjusted the pH to the physiological value by using 1N NaOH.
Several studies have shown that drug transport into the CNS may be more similar between humans and primates. […] To explore the mechanism of BACE1 compounds, the compounds were tested using this in vivo study. […] The monkey Aβ reduction study usually takes 3 weeks.
The time-course profiles of neurodegeneration biomarkers were determined following single oral administration of the selected BACE1 inhibitors to male cynomolgus monkeys. Blood samples were collected from all animals via the saphenous vein or cephalic vein at 0 (pre-dose), 0.5, 1, 3, 6, 8, 12 and 24 hr post-dose into test tubes containing potassium ethylenediaminotetraacetic acid (K2EDTA). CSF samples were collected via a pre-implanted cannula at the foramina occipital magnum site at 0 (pre-dose), 3, 6, 12 and 24 hr post-dose.
Plasma was separated from the blood by centrifugation at 4° C. and stored at −80° C. until analyzing. The biomarkers of Aβ38, Aβ40 and Aβ42 in CSF were quantified using Meso Scale Discovery (MSD) multiplex electrochemiluminescence immunoassay according to the manufacturer's instructions. The plates were first blocked with 150 μL of Diluent 35 for 1 hour at room temperature with constant shaking at 600 rpm. After washing three times with 200 μL washing buffer, 25 μL of 1× detection antibody solution, plus Aβ40 blocker, 25 μL of seven standards, zero standard and four-fold diluted samples were added to the assay plate. The plate was incubated for 2 hours at room temperature, with constant shaking at 600 rpm. Upon finishing, the plate was washed three times with washing buffer and read in a Sector Imager 6000 (MSD) immediately after addition of 150 μL of 2× Read Buffer T. Aβ concentrations were calculated with reference to the standard curves of each individual peptide and expressed as pg/mL using SoftMax Pro GXP 5.4.4.

The target in data set [6] is Human recombinant cathepsin D (Homo sapiens (Human), UniProt P07339). In words: Cathepsin D activity assay. Particulars: read-out: CatD IC50. It is filed as biochemical.
Method: The development of a CatD activity assay is used to determine any potential cross reactivity for compounds selected from the β-secretase activity assay and to determine the selectivity to BACE1 inhibition. The CatD activity is reported for assessing target selectivity ratio (CatD IC50/BACE1 IC50).
The reagents for the cathepsin D assay were prepared as follows.
Human recombinant cathepsin D stored frozen in 2.0 μl aliquots was thawed and 42 μl of enzyme buffer (0.1M NaOAC, 0.2 M NaCl, pH 3.5) was added and incubated at 37° C. for 30 minutes. After 30 minutes the enzyme was further diluted to a final volume of 4.4 ml in enzyme buffer containing 5.0 mM DTT for immediate use in the cathepsin D assay.
The 7-methoxycoumarin-labeled peptide substrate (ES010) for cathepsin D was supplied as a 6.2 mM stock in DMSO. For use in the cathepsin D assay, the 6.2 mM stock was diluted to a 1.55 mM stock with DMSO. The 1.55 mM peptide stock in DMSO was further diluted 1:100 in reaction buffer (0.1M NaOAC, 0.2M NaCl, 0.1% Tween 20, 5.0 mM DTT, pH3.5) to create a 15.5 μM stock for use in the assay.
DMSO without compound served as a DMSO vehicle control for the cathepsin D assay. For each test compound, 30 μl of each dilution was pipetted into a separate well of a 96-well polypropylene plate. This polypropylene plate was labeled as the DMSO dilution plate and a plate map of test compound locations was made.
Test compounds from the DMSO dilution plate require a 1:100 dilution into reaction buffer before they can be added to the cathepsin D assay plate. To accomplish the 1:100 dilution of test compounds, 2.0 μl of each test compound at each concentration was pipetted from the DMSO dilution plate (using a multi-channel pipette calibrated to accurately dispense a 2.0 μl volume) into a new 96-well polypropylene plate using the plate map created for the DMSO dilution plate. This 96-well plate served as the inhibitor dilution plate. Next, 198 μl of reaction buffer was pipetted into each well of the inhibitor dilution plate (using a multi-channel pipette calibrated for accurate delivery of a 198 μl volume) and the pipetted test compound mixed by gentle up and down pipetting.
A1.0 mM stock of pepstatin A was made in DMSO and aliquotted into 5.0 μl samples for freezing and storage at −20° C. Upon thawing, 45 μl of DMSO (1:10 dilution) was added to create a 100 μM stock of pepstatin A in DMSO. The 100 μM Pepstatin A stock was further diluted 1:10 with DMSO to create a 10 μM stock in DMSO. […]
The assay plate was placed into a fluorescent plate reader with the excitation wavelength set at 320 nm and the emission wavelength set at 405 nm. Readings were collected every minute over a 30 minute collection period.
Data set [7] has as its system CSF Aβ40, Aβ42 and soluble APPβ. The following applies: AD patients, reported by Merck; cited from earlier work.

We go through 9 compounds from US10870635B2, “Compounds and their use as BACE1 inhibitors” (ALLGENESIS BIOTHERAPEUTICS, INC., priority 2015, dated 2020).

Chain of BACE1 (recombinant β-secretase enzyme) (P56817 46-501): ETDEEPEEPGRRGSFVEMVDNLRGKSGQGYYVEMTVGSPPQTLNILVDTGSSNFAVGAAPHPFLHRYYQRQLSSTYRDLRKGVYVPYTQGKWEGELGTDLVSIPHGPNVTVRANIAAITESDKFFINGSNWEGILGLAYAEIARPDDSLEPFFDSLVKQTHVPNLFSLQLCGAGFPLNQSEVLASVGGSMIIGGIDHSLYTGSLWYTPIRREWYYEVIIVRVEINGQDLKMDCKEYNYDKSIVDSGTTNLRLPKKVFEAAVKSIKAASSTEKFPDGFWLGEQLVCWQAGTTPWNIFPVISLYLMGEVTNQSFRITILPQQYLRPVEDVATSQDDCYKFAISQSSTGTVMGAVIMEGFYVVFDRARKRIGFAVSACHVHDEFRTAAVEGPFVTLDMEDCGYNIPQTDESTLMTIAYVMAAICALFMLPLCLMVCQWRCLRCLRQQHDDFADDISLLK
Chain of recombinant BACE2 (Q9Y5Z0 63-518): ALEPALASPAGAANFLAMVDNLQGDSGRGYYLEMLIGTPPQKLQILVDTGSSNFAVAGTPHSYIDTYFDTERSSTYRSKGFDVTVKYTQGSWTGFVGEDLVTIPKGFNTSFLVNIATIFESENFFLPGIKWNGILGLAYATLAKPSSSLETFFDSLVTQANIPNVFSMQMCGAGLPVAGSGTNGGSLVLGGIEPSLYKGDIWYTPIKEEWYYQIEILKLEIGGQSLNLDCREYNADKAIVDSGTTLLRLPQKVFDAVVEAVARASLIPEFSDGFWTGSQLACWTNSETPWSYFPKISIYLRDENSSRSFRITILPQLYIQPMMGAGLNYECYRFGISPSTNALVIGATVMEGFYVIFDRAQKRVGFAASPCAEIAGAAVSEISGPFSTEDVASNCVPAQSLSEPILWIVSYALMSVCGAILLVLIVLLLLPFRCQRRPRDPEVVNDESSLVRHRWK
Chain of Human recombinant cathepsin D (P07339 65-412): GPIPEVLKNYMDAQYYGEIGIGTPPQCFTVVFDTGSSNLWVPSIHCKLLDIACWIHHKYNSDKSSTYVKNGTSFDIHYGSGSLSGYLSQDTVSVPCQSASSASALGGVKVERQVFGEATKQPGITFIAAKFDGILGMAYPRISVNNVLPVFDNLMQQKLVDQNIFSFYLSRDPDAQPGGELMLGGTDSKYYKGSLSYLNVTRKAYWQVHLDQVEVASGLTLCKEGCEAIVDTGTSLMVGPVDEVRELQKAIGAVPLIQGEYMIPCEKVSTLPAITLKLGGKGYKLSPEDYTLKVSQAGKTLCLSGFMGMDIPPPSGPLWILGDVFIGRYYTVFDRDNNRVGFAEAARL

For the compound `CC#Cc1ccc2[nH]c([C@]3(C)CC(=O)N(C)C(=N)N3)c(Cl)c2c1` [Example 38, (S)-6-(3-Chloro-5-(prop-1-yn-1-yl)-1H-indol-2-yl)-2-imino-3,6-dimethyl-tetrahydropyrimidin-4(1H)-one], the half-maximal inhibitory concentration (IC50) in data set [1] amounted to 44 nM; in data set [2], 24 nM.

On to `NC1=N[C@@]2(c3cc(NC(=O)c4ccc(F)cn4)ccc3F)COC[C@H]2CS1` [LY-2886721], for which the “toxicity finding leading to termination” value in data set [3] was “liver toxicity”.

Regarding `C[C@@]1(c2cc(-c3cncnc3)c(F)cc2F)CCSC(N)=N1` [LY-2811376], in data set [4], the “toxicity finding leading to discontinuation” value is “retinal toxicity”.

On to `CC#Cc1ccc2sc3ccc([C@]4(C)CS(=O)(=O)C5(CC5)C(=N)N4)cc3c2c1` [Example 136, (R)-8-Imino-6-methyl-6-(8-(prop-1-yn-1-yl)dibenzo[b,d]thiophen-2-yl)-4-thia-7-azaspiro[2.5]octane 4,4-dioxide], for which, in data set [5], the “% of maximum Aβ40 inhibition over 24 hours” value (“% of maximum Aβ40 inhibition” for short) is on record as 44.5%.

On to `CC#Cc1ccc2sc3cc(Cl)c([C@]4(C)CC(=O)N(C)C(N)=N4)cc3c2c1` [Example 71, (S)-2-Amino-6-(3-chloro-8-(prop-1-yn-1-yl)dibenzo[b,d]thiophen-2-yl)-3,6-dimethyl-5,6-dihydropyrimidin-4(3H)-one], for which the results for the IC50 in data set [1], in data set [2] and in data set [6] were 44 nM, 23.8 ± 1.52 nM and 3900 nM, respectively.

On to `CC#Cc1ccc2sc3ccc([C@]4(C)CC(=O)N(C)C(=N)N4)cc3c2c1` [Example 1, (S)-2-Imino-3,6-dimethyl-6-(8-(prop-1-yn-1-yl)dibenzo[b,d]thiophen-2-yl)tetrahydropyrimidin-4(1H)-one], for which the IC50 in data set [1] came out at 26 nM; in data set [6], 12300 nM.

For the compound `CN1C(=N)N[C@](C)(c2cc(NC(=O)c3ccc(F)cn3)ccc2F)CS1(=O)=O` [MK-8931], in data set [7], the “effect on CSF Aβ40, Aβ42 and soluble APPβ” value was “reduce CSF Aβ40, Aβ42 and soluble APPβ”.

Consider `CC#Cc1cc2c(cc1F)sc1ccc([C@]3(C)CS(=O)(=O)C(C)(C)C(=N)N3)cc12` [Example 128, (R)-5-(7-Fluoro-8-(prop-1-yn-1-yl)dibenzo[b,d]thiophen-2-yl)-3-imino-2,2,5-trimethylthiomorpholine 1,1-dioxide], for which, in data set [5], the “% of maximum Aβ40 inhibition” value is 49.1%.

For `CC#Cc1ccc2sc3cc(F)c([C@]4(C)CC(=O)N(C)C(=N)N4)cc3c2c1` [Example 72, (S)-6-(3-Fluoro-8-(prop-1-yn-1-yl)dibenzo[b,d]thiophen-2-yl)-2-imino-3,6-dimethyltetrahydropyrimidin-4(1H)-one], the IC50 in data set [1] came out at 21 nM. For the same compound, in data set [5], the “% of maximum Aβ40 inhibition” value is reported as 33.7%.

The term IC50 denotes the concentration at which inhibition is half-maximal.
